Test results taken from patent US20220033407A1, “N-(pyridin-2-ylsulfonyl)cyclopropanecarboxamide Derivatives and their Use in the Treatment of Disease” (NOVARTIS AG, priority 2018, published 2022).

Legend:
delF508-CFTR = target: T1, delF508-CFTR (Homo sapiens, UniProt P13569, DEL508-508); assay: delF508-CFTR functional activity in primary human bronchial epithelial cells (HBECs), Multi-Transepithelial Clamp Circuit (MTECC-24) assay, equivalent short circuit current; format: cell-based; conditions: primary CF HBECs; for MTECC24 CFHBEC-Amax %: relative to reference combination 2 μM 3-(6-(1-(2,2-difluorobenzo[d][1,3]dioxol-5-yl)cyclopropane-1-carboxamido)-3-methylpyridin-2-yl)benzoic acid (24 h) + 0.5 μM N-(2,4-di-tert-butyl-5-hydroxyphenyl)-4-oxo-1,4-dihydroquinoline-3-carboxamide; for EC50: test compound added 24 h before assay, potentiator (S)-3-amino-6-methoxy-N-(3,3,3-trifluoro-2-hydroxy-2-methylpropyl)-5-(trifluoromethyl)picolinamide present at assay, mean of at least two replicates, read-out: MTECC24 CFHBEC-EC50
T1 construct: functional activity of the CFTR channel (Chloride ion transport) in patient derived primary human bronchial epithelial cells; host or cells: patient-derived primary human bronchial epithelial cells (HBECs), delF508-CFTR
T1 sequence (P13569 with tags, fused parts or gaps DEL508-508): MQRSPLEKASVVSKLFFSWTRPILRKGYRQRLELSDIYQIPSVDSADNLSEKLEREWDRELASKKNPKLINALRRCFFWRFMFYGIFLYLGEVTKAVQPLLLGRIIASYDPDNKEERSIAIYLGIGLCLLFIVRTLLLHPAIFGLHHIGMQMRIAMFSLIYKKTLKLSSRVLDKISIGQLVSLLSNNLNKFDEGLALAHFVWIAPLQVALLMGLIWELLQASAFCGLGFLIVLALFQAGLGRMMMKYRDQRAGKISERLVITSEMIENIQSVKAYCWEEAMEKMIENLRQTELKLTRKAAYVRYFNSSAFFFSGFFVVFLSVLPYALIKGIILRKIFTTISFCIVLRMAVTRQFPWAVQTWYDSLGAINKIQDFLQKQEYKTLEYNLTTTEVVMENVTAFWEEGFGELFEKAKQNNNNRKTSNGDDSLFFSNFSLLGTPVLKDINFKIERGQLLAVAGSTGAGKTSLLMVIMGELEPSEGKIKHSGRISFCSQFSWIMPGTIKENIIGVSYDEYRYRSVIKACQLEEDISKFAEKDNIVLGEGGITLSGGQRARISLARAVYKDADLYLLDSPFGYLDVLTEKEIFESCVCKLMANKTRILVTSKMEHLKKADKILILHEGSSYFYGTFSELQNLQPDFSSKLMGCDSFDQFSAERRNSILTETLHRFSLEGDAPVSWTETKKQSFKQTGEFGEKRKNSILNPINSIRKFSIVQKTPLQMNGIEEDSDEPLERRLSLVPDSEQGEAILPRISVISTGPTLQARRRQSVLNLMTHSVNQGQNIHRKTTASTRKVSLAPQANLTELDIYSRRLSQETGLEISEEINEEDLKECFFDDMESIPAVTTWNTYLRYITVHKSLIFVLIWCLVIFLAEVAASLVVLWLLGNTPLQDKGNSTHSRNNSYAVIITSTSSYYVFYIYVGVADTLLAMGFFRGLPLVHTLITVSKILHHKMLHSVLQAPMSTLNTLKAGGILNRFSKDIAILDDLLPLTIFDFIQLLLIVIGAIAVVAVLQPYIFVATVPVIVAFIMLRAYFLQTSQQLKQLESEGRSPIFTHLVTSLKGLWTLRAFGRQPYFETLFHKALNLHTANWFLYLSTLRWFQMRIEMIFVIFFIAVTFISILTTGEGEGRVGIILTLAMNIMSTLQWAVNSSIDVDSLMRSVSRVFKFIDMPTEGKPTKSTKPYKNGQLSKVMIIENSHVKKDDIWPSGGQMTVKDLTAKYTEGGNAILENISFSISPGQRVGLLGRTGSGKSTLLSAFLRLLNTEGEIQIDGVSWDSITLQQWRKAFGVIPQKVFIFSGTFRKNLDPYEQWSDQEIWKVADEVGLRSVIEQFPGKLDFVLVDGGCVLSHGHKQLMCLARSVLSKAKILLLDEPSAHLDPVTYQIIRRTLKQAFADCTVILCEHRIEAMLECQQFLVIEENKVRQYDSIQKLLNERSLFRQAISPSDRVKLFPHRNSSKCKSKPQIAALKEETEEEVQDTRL
Procedure, shortened: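 Compound acted as corrector on differentiated primary delF508-CFTR bronchial cultures, first 24 h basolaterally, then 45 min both sides before reading. Equivalent short circuit current was recorded during sequential forskolin and potentiator addition. EC50 came from 10-point, 1-in-3 dilution curves against the 0.1% DMSO baseline.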

delF508-CFTR-HRP = target: T2, delF508-CFTR-HRP (Homo sapiens, UniProt P13569, DEL508-508); assay: Measurement of delF508-CFTR-HRP surface expression in CFBE41o- cells (HRP luminescence); format: cell-based; conditions: for Emax: CFBE41o-, read-out: DelF508-CFTR-HRP Amax %; for EC50: mean of at least two replicates;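 for DelF508-CFTR-HRP Amax %: percent efficacy relative to a reference CFTR corrector compound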
T2 construct: expressed in transfected cells
T2 sequence (P13569 with tags, fused parts or gaps DEL508-508): as above
Procedure, shortened: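 EC50 derived by logistic regression of triplicate surface-HRP luminescence, plate-normalized to the lowest-concentration median. Doxycycline (500 ng/mL, 48 h) induced delF508-CFTR-HRP in CFBE41o- cells; compounds then applied 24 h at 37° C, 10 μM top, 3-fold over 10 points.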

Row | MTECC24 CFHBEC-Amax % (delF508-CFTR) | EC50 (delF508-CFTR) | Emax (delF508-CFTR-HRP) | EC50 (delF508-CFTR-HRP) | SMILES
1 | 79% | 0.007 µM | 294% | 0.42 µM | Cc1ccc(-c2cccc(C(F)(F)F)c2)c(OC2(C(=O)NS(=O)(=O)c3cccc(N4CCC(N)(C(F)(F)F)CC4)n3)CC2)c1 [Example 5-16, N-((6-(4-Amino-4-(trifluoromethyl)piperidin-1-yl)pyridin-2-yl)sulfonyl)-1-((4-methyl-3′-(trifluoromethyl)-[1,1′-biphenyl]-2-yl)oxy)cyclopropane-1-carboxamide]
2 | 67% | 0.153 µM | 230% | 3.87 µM | Cc1ccc(OCc2ccccc2)c(OC2(C(=O)NS(=O)(=O)c3cccc(N4CCO[C@@H](C)C4)n3)CC2)c1 [Example 6-1, (S)-1-(2-(Benzyloxy)-5-methylphenoxy)-N-((6-(2-methylmorpholino)pyridin-2-yl)sulfonyl)cyclopropanecarboxamide]
3 | 110.6% | 0.668 µM | 462% | 2.07 µM | Cc1ccc(OC2CCCCCC2)c(OC2(C(=O)NS(=O)(=O)c3cccc(N4CC[C@H](O)C4)n3)CC2)c1 [Example 6-6, (S)-1-(2-(cycloheptyloxy)-5-methylphenoxy)-N-((6-(3-hydroxypyrrolidin-1-yl)pyridin-2-yl)sulfonyl)cyclopropanecarboxamide]
4 | 203.9% | 0.116 µM | 446% | 0.76 µM | CC(C)(C)C1CCC(Oc2ccc(Cl)cc2OC2(C(=O)NS(=O)(=O)c3cccc(N4CC[C@H](O)C4)n3)CC2)CC1 (stereo partly drawn) [Example 6-7, (S)-1-(2-((4-(tert-butyl)cyclohexyl)oxy)-5-chlorophenoxy)-N-((6-(3-hydroxypyrrolidin-1-yl)pyridin-2-yl)sulfonyl)cyclopropanecarboxamide]
5 | 107.4% | 0.289 µM | 382% | 1.28 µM | Cc1ccc(OC2CCC3CCCCC3C2)c(OC2(C(=O)NS(=O)(=O)c3cccc(N4CC[C@H](O)C4)n3)CC2)c1 (stereo partly drawn) [Example 6-9, 1-(2-((decahydronaphthalen-2-yl)oxy)-5-methylphenoxy)-N-((6-((S)-3-hydroxypyrrolidin-1-yl)pyridin-2-yl)sulfonyl)cyclopropanecarboxamide]
6 | 79.2% | 1.44 µM | 350% | 2.67 µM | Cc1ccc(OC2Cc3ccccc3C2)c(OC2(C(=O)NS(=O)(=O)c3cccc(N4CC[C@H](O)C4)n3)CC2)c1 [Example 6-10, (S)-1-(2-((2,3-dihydro-1H-inden-2-yl)oxy)-5-methylphenoxy)-N-((6-(3-hydroxypyrrolidin-1-yl)pyridin-2-yl)sulfonyl)cyclopropanecarboxamide]
7 | 113.6% | 0.261 µM | 311% | 1.18 µM | Cc1ccc(OCCC2CCCCC2)c(OC2(C(=O)NS(=O)(=O)c3cccc(N4CC[C@H](O)C4)n3)CC2)c1 [Example 6-11, (S)-1-(2-(2-cyclohexylethoxy)-5-methylphenoxy)-N-((6-(3-hydroxypyrrolidin-1-yl)pyridin-2-yl)sulfonyl)cyclopropanecarboxamide]
8 | 111.4% | 0.852 µM | 297% | 2.71 µM | CC(C)CCOc1ccc(Cl)cc1OC1(C(=O)NS(=O)(=O)c2cccc(N3CC[C@H](O)C3)n2)CC1 [Example 6-12, (S)-1-(5-chloro-2-(isopentyloxy)phenoxy)-N-((6-(3-hydroxypyrrolidin-1-yl)pyridin-2-yl)sulfonyl)cyclopropanecarboxamide]
9 | 203.8% | 0.132 µM | 445% | 0.49 µM | O=C(NS(=O)(=O)c1cccc(N2CCC(O)(C(F)(F)F)CC2)n1)C1(Oc2cc(Cl)ccc2C2CC3(CCC3)C2)CC1 [Example 7-1, 1-(5-Chloro-2-(spiro[3.3]heptan-2-yl)phenoxy)-N-((6-(4-hydroxy-4-(trifluoromethyl)piperidin-1-yl)pyridin-2-yl)sulfonyl)cyclopropanecarboxamide]
10 | 135.1% | 0.132 µM | 794% | 1.02 µM | O=C(NS(=O)(=O)c1cccc(N2CC[C@H](O)C2)n1)C1(Oc2cc(Cl)ccc2C2CC3(CCC3)C2)CC1 [Example 7-3, (S)-1-(5-chloro-2-(spiro[3.3]heptan-2-yl)phenoxy)-N-((6-(3-hydroxypyrrolidin-1-yl)pyridin-2-yl)sulfonyl)cyclopropanecarboxamide]
11 | 120.3% | 0.345 µM | 300% | 2.05 µM | O=C(NS(=O)(=O)c1cccc(N2CC(O)C2)n1)C1(Oc2cc(Cl)ccc2C2CC3(CCC3)C2)CC1 [Example 7-9, 1-(5-Chloro-2-(spiro[3.3]heptan-2-yl)phenoxy)-N-((6-(3-hydroxyazetidin-1-yl)pyridin-2-yl)sulfonyl)cyclopropane-1-carboxamide]
12 | 115.5% | 0.356 µM | 367% | 1.67 µM | CC1(O)CN(c2cccc(S(=O)(=O)NC(=O)C3(Oc4cc(Cl)ccc4C4CC5(CCC5)C4)CC3)n2)C1 [Example 7-10, 1-(5-Chloro-2-(spiro[3.3]heptan-2-yl)phenoxy)-N-((6-(3-hydroxy-3-methylazetidin-1-yl)pyridin-2-yl)sulfonyl)cyclopropane-1-carboxamide]
13 | 154.0% | 0.197 µM | 446% | 1.26 µM | O=C(NS(=O)(=O)c1cccc(N2CCC(O)CC2)n1)C1(Oc2cc(Cl)ccc2C2CC3(CCC3)C2)CC1 [Example 7-11, 1-(5-Chloro-2-(spiro[3.3]heptan-2-yl)phenoxy)-N-((6-(4-hydroxypiperidin-1-yl)pyridin-2-yl)sulfonyl)cyclopropane-1-carboxamide]
14 | 152.6% | 0.195 µM | 529% | 1.09 µM | CC1(O)CCN(c2cccc(S(=O)(=O)NC(=O)C3(Oc4cc(Cl)ccc4C4CC5(CCC5)C4)CC3)n2)CC1 [Example 7-12, 1-(5-Chloro-2-(spiro[3.3]heptan-2-yl)phenoxy)-N-((6-(4-hydroxy-4-methylpiperidin-1-yl)pyridin-2-yl)sulfonyl)cyclopropane-1-carboxamide]
15 | 81.1% | 0.213 µM | 543% | 1.29 µM | C[C@@H]1CN(c2cccc(S(=O)(=O)NC(=O)C3(Oc4cc(Cl)ccc4C4CC5(CCC5)C4)CC3)n2)CCO1 [Example 7-13, (R)-1-(5-Chloro-2-(spiro[3.3]heptan-2-yl)phenoxy)-N-((6-(2-methylmorpholino)pyridin-2-yl)sulfonyl)cyclopropane-1-carboxamide]
16 | 128.1% | 0.317 µM | 496% | 1.1 µM | CO[C@H]1CCN(c2cccc(S(=O)(=O)NC(=O)C3(Oc4cc(Cl)ccc4C4CC5(CCC5)C4)CC3)n2)C1 [Example 7-14, (S)-1-(5-Chloro-2-(spiro[3.3]heptan-2-yl)phenoxy)-N-((6-(3-methoxypyrrolidin-1-yl)pyridin-2-yl)sulfonyl)cyclopropane-1-carboxamide]
